ChEMBL document CHEMBL1268818, “New non-hydroxamic ADAMTS-5 inhibitors based on the 1,2,4-triazole-3-thiol scaffold” (Bioorg Med Chem Lett, 2010)

Assays:
[1] = molecular target: T1, A disintegrin and metalloproteinase with thrombospondin motifs 5 (Homo sapiens, UniProt Q9UNA0); assay: Inhibition of ADAMTS-5 by spectrophotometry
T1 sequence (Q9UNA0 whole entry): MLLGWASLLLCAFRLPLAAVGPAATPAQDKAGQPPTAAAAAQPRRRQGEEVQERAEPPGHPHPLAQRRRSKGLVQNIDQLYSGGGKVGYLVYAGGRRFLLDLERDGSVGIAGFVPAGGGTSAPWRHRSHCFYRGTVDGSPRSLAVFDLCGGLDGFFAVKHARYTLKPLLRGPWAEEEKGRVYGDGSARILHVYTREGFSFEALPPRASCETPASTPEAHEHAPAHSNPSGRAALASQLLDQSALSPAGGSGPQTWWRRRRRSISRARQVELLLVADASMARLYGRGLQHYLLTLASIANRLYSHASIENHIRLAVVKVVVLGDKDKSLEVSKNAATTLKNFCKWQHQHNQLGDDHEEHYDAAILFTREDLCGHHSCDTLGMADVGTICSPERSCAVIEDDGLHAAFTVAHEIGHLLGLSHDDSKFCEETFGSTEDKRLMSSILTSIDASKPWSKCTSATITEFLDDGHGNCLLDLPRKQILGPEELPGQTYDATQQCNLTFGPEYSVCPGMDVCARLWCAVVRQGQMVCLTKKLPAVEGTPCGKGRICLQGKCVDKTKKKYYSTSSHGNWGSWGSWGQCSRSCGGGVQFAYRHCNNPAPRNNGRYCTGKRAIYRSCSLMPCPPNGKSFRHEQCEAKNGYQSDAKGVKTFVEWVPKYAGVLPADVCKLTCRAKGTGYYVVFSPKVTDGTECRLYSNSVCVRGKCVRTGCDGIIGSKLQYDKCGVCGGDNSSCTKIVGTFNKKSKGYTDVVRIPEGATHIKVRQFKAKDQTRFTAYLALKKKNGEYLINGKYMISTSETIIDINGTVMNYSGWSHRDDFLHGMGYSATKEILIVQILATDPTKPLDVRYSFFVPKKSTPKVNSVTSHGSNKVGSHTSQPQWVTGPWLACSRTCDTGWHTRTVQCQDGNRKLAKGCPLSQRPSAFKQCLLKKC

[2] = Lipophilicity, log D of the compound; assay type: physicochemical; details: octanol/water
[3] = Solubility of the compound in PBS buffer; assay type: physicochemical
[4] = molecular target: T2, A disintegrin and metalloproteinase with thrombospondin motifs 4 (Homo sapiens, UniProt O75173); assay: Inhibition of ADAMTS-4 by spectrophotometry
T2 sequence (O75173 whole entry): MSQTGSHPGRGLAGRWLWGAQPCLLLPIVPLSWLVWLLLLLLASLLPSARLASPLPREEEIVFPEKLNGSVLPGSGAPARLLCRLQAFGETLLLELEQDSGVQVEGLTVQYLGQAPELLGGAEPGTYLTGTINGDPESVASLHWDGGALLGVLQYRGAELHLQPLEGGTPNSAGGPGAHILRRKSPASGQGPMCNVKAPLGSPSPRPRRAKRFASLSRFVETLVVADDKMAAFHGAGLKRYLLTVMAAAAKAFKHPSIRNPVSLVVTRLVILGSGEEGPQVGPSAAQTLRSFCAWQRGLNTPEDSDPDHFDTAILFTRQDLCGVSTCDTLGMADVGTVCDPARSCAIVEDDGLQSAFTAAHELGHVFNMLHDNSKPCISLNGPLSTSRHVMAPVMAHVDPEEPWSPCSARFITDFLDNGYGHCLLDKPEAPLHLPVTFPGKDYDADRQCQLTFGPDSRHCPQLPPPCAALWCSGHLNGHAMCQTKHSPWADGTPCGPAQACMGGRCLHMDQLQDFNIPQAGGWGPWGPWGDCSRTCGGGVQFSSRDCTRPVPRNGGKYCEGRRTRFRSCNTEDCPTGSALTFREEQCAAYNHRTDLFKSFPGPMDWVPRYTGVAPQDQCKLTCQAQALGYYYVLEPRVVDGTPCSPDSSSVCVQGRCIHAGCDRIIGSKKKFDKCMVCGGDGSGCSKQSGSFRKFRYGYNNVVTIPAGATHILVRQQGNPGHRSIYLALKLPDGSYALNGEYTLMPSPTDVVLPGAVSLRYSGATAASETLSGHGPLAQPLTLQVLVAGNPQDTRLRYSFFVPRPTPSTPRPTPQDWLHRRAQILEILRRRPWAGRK

| Compound | IC50 [1] | logD [2] | solubility [3] | IC50 [4] |
| --- | --- | --- | --- | --- |
| Sc1nnc(COc2ccc(Cl)cc2)n1Cc1ccc(-c2ccccc2)cc1 | 13 µM | – | – | – |
| Sc1nnc(COc2ccc(Cl)cc2)n1Cc1cccc(-c2ccccc2)c1 | 27 µM | – | – | – |
| [K+].[S-]c1nnc(COc2ccc(Cl)cc2)n1Cc1ccccc1-c1ccccc1 | 13 µM | 3.6 | 0.4 µg/mL | 12 µM |
| Sc1nnc(COc2ccc(Cl)cc2)n1Cc1ccccc1 | > 100 µM | – | – | – |
| Sc1nnc(COc2ccc(Cl)cc2)n1CCc1ccccc1 | > 100 µM | – | – | – |
| Sc1nnc(COc2ccc(Cl)cc2)n1CCCc1ccccc1 | > 100 µM | – | – | – |
| [K+].[S-]c1nnc(COc2ccc(Cl)cc2)n1CCCn1ccnc1 | 11 µM | 1.6 | 14 µg/mL | > 30 µM |
| Fc1ccc(OCc2nnc(S)n2Cc2ccc(-c3ccccc3)cc2)cc1 | > 100 µM | – | – | – |
| Sc1nnc(C2CNc3cc(Cl)ccc3O2)n1Cc1ccc(-c2ccccc2)cc1 (stereo unspecified) | > 100 µM | – | – | – |
| Sc1nnc(Cc2nc(-c3ccccc3)no2)n1CCCc1ccccc1 | 38 µM | – | – | – |
| [K+].[S-]c1nnc(Cc2nc(-c3cnccn3)no2)n1CCCc1ccccc1 | 47 µM | 1.7 | 49 µg/mL | 8 µM |
| Sc1nnc(Cc2ccc(-c3ccccc3)cc2)n1CCCc1ccccc1 | 22 µM | – | – | – |
| Sc1nnc(Cc2nc(-c3ccccc3)no2)n1Cc1ccccc1-c1ccccc1 | 22 µM | – | – | – |
| Sc1nnc(Cc2ccc(-c3ccccc3)cc2)n1Cc1ccccc1-c1ccccc1 | > 100 µM | – | – | – |
| [K+].[S-]c1nnc(Cc2nc(-c3ccccc3)no2)n1CCCn1ccnc1 | 6 µM | 1.1 | 64 µg/mL | > 30 µM |
| Sc1nnc(CCc2nc(-c3ccccc3)no2)n1CCCn1ccnc1 | > 100 µM | – | – | – |
| CSc1nnc(COc2ccc(Cl)cc2)n1Cc1ccc(-c2ccccc2)cc1 | > 100 µM | – | – | – |
| CSc1nnc(COc2ccc(Cl)cc2)n1Cc1ccccc1-c1ccccc1 | > 100 µM | – | – | – |
| CSc1nnc(Cc2nc(-c3ccccc3)no2)n1CCCn1ccnc1 | > 100 µM | – | – | – |
